Consider five compounds from US9980943B2, “Methods of treating muscular dystrophy” (BOARD OF REGENTS OF THE NEVADA SYSTEM OF HIGHER EDUCATION, …, priority 2013, dated 2018).

What all share (format): cell-based, mouse
Assay [1] concerns α7 integrin (LacZ reporter in α7βgal+/− myoblasts). Put plainly: Myoblast α7+/LacZ integrin FDG assay (Burkin assay in myoblasts, 96-well). To be noted: 96-well; for Burkin Assay in Myoblasts, signal relative to DMSO: α7+/LacZ myoblasts; for Burkin Assay in Myoblasts, value relative to DMSO: SU9516 analogs, N=3-6.
The test system of assay [2] is α7 integrin (LacZ reporter in α7+/LacZ myotubes). Put plainly: Myotube α7 integrin FDG assay (Burkin assay in myotubes, 96-well). To be noted: for Burkin Assay in Myotubes, value relative to DMSO: SU9516 analogs, 96-well, N=3-6.
The test system of assay [3] is β-galactosidase in CMV-LacZ C2C12 myoblasts. Put plainly: CMV-LacZ secondary screen in C2C12 myoblasts (β-Gal stabilizing assay). The conditions noted are these: for CMV-LACZ in Myoblasts (β-galactosidase activity relative to DMSO): CMV-LacZ C2C12 myoblasts; for CMV-LACZ in Myoblasts, value relative to DMSO: SU9516 analogs, C2C12 CMV-LacZ, N=2. In outline:
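Dose-response runs at 0.5–40 μM (0.5, 1, 5, 10, 20, 40 μM; N=2 per point) used a clonal C2C12 line carrying CMV-LacZ. Cells were assayed as myoblasts or as differentiated myotubes, and β-galactosidase levels were read with the FDG fluorogenic substrate.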

Assay [4] concerns β-galactosidase in CMV-LacZ C2C12 myotubes. The assay can be described thus: CMV-LacZ secondary screen in C2C12 myotubes (β-Gal stabilizing assay). The conditions noted are these: for CMV-LACZ in Myotubes, signal relative to DMSO: C2C12 CMV-LacZ myotubes, fold relative to DMSO; for CMV-LACZ in Myotubes, value relative to DMSO: SU9516 analogs, C2C12 CMV-LacZ, N=2. The essentials: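 Stable CMV-LacZ C2C12 clone; six-point curve 0.5–40 μM; duplicates.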

The structures appear in SMILES notation.

As to `O=C(NCc1ccccc1)C(c1c(F)cccc1Cl)N(C(=O)c1csnn1)C1CC1` (stereo not drawn) [MLS001221908-01], the “Burkin Assay in Myoblasts, signal relative to DMSO” value in assay [1] (0.5 uM) was 1.051; in assay [1] (1 uM), 0.9531; in assay [1] (5 uM), 0.9306; in assay [1] (10 uM), 0.8812; in assay [1] (20 uM), 1.433; in assay [1] (40 uM) it was 0.5684. Besides, the “Burkin Assay in Myotubes, α7 integrin LacZ reporter signal relative to DMSO” value amounted to 1.197 in assay [2] (0.5 uM); 0.9589 in assay [2] (1 uM); 0.889 in assay [2] (5 uM); 0.9693 in assay [2] (10 uM); 0.818 in assay [2] (20 uM); 0.7406 in assay [2] (40 uM). Also, the “CMV-LACZ in Myoblasts (β-galactosidase activity relative to DMSO)” value in assay [3] (0.5 uM) stood at 0.9663; in assay [3] (1 uM) it was 0.7607; in assay [3] (5 uM) it was 0.9357; in assay [3] (10 uM), 0.7908; in assay [3] (20 uM), 0.9726; in assay [3] (40 uM), 0.6789. Moreover, the “CMV-LACZ in Myotubes, signal relative to DMSO” value in assay [4] (0.5 uM) was determined as 0.8562; in assay [4] (1 uM), 0.9171; in assay [4] (5 uM) it was 0.9745; in assay [4] (10 uM) it was 1.1838; in assay [4] (20 uM), 1.0770; in assay [4] (40 uM), 0.8850.

On to `NC(=O)COc1ccc(C(=O)/C=C2/C(=O)Nc3ccccc32)cc1` [MLS001214300-01], for which the “Burkin Assay in Myoblasts, value relative to DMSO” value was determined as 1.211 in assay [1] (0.5 uM); 0.9366 in assay [1] (1 uM); 0.8041 in assay [1] (5 uM); 0.353 in assay [1] (10 uM); 0.1847 in assay [1] (20 uM); 0.02593 in assay [1] (40 uM). Moreover, the “Burkin Assay in Myotubes, value relative to DMSO” value in assay [2] (0.5 uM) turned out to be 1.019; in assay [2] (1 uM) it was 1.039; in assay [2] (5 uM) it was 1.091; in assay [2] (10 uM), 0.8733; in assay [2] (20 uM) it was 0.7447; in assay [2] (40 uM), 0.3178. Further, the “CMV-LACZ in Myoblasts, value relative to DMSO” value is reported as 1.0446 in assay [3] (0.5 uM); 0.9403 in assay [3] (1 uM); 0.7949 in assay [3] (5 uM); 1.1047 in assay [3] (10 uM); 0.4007 in assay [3] (20 uM); 0.1793 in assay [3] (40 uM). Besides, the “CMV-LACZ in Myotubes, value relative to DMSO” value is on record as 0.9819 in assay [4] (0.5 uM); 0.8924 in assay [4] (1 uM); 1.0550 in assay [4] (5 uM); 1.0956 in assay [4] (10 uM); 6.2635 in assay [4] (20 uM); 0.7118 in assay [4] (40 uM).

With `CN1CCN(c2ccccc2/C=C2/C(=O)Nc3ccccc32)CC1` [MLS001182377-01], the “Burkin Assay in Myoblasts, value relative to DMSO” value in assay [1] (0.5 uM) is 1.179; in assay [1] (1 uM) it was 1.045; in assay [1] (5 uM), 0.915; in assay [1] (10 uM) it was 0.9061; in assay [1] (20 uM), 0.8744; in assay [1] (40 uM) it was 0.6176. In addition, the “Burkin Assay in Myotubes, value relative to DMSO” value in assay [2] (0.5 uM) was found to be 1.015; in assay [2] (1 uM) it was 1.021; in assay [2] (5 uM) it was 0.9372; in assay [2] (10 uM), 0.9389; in assay [2] (20 uM) it was 0.8654; in assay [2] (40 uM), 0.9149. Further, the “CMV-LACZ in Myoblasts, value relative to DMSO” value is given as 1.1229 in assay [3] (0.5 uM); 1.1646 in assay [3] (1 uM); 0.9113 in assay [3] (5 uM); 0.9294 in assay [3] (10 uM); 0.4441 in assay [3] (20 uM); 0.4170 in assay [3] (40 uM). In addition, the “CMV-LACZ in Myotubes, value relative to DMSO” value in assay [4] (0.5 uM) is listed as 0.7762; in assay [4] (1 uM) it was 0.8105; in assay [4] (5 uM), 0.9608; in assay [4] (10 uM), 1.0589; in assay [4] (20 uM) it was 1.0305; in assay [4] (40 uM), 1.0263.

With `CC(C)c1ccc(OC(=O)c2cccc(S(=O)(=O)N3CCN(C)CC3)c2)cc1` [MLS001130011-01], the “Burkin Assay in Myoblasts, signal relative to DMSO” value in assay [1] (0.5 uM) is reported as 0.9715; in assay [1] (1 uM), 0.8947; in assay [1] (5 uM), 1.374; in assay [1] (10 uM), 0.9762; in assay [1] (20 uM) it was 1.037; in assay [1] (40 uM), 0.9155. For the same compound, the “Burkin Assay in Myotubes, α7 integrin LacZ reporter signal relative to DMSO” value in assay [2] (0.5 uM) stood at 0.9553; in assay [2] (1 uM) it was 0.9952; in assay [2] (5 uM) it was 0.8834; in assay [2] (10 uM), 1.0699; in assay [2] (20 uM) it was 0.7883; in assay [2] (40 uM), 0.7512. In addition, the “CMV-LACZ in Myoblasts (β-galactosidase activity relative to DMSO)” value in assay [3] (0.5 uM) came out at 1.1702; in assay [3] (1 uM), 0.7695; in assay [3] (5 uM) it was 1.0011; in assay [3] (10 uM), 1.1138; in assay [3] (20 uM), 0.7837; in assay [3] (40 uM), 0.8311. The “CMV-LACZ in Myotubes, signal relative to DMSO” value in assay [4] (0.5 uM) worked out at 0.9358; in assay [4] (1 uM), 1.0211; in assay [4] (5 uM) it was 0.9057; in assay [4] (10 uM), 0.8998; in assay [4] (20 uM), 0.8367; in assay [4] (40 uM) it was 1.0156.

Regarding `CC(=O)Nc1ccc(NC(=O)c2cc(=O)c3cc(C)cc(C)c3o2)cc1` [MLS001200396-01], the “Burkin Assay in Myoblasts, signal relative to DMSO” value is 0.8827 in assay [1] (0.5 uM); 0.9245 in assay [1] (1 uM); 0.5378 in assay [1] (5 uM); 1.1321 in assay [1] (10 uM); 0.4827 in assay [1] (20 uM); 0.4794 in assay [1] (40 uM). The “Burkin Assay in Myotubes, α7 integrin LacZ reporter signal relative to DMSO” value stood at 0.9301 in assay [2] (0.5 uM); 0.9487 in assay [2] (1 uM); 0.9829 in assay [2] (5 uM); 1.264 in assay [2] (10 uM); 0.6408 in assay [2] (20 uM); 0.7114 in assay [2] (40 uM). In addition, the “CMV-LACZ in Myoblasts (β-galactosidase activity relative to DMSO)” value in assay [3] (0.5 uM) was found to be 1.0489; in assay [3] (1 uM), 0.9157; in assay [3] (5 uM) it was 1.0212; in assay [3] (10 uM) it was 1.2107; in assay [3] (20 uM), 0.7252; in assay [3] (40 uM) it was 0.9011. Moreover, the “CMV-LACZ in Myotubes, signal relative to DMSO” value in assay [4] (0.5 uM) is reported as 0.9137; in assay [4] (1 uM), 0.8442; in assay [4] (5 uM) it was 0.8987; in assay [4] (10 uM), 0.7738; in assay [4] (20 uM) it was 0.9644; in assay [4] (40 uM), 0.9733.
